Source: US11167007B2, “FOXM1 modulators and uses thereof” (City of Hope, priority 2016, dated 2021)

Columns and labels:
AR = biological target: T1, AR (Rattus norvegicus, UniProt P15207); experiment: Androgen-responsive luciferase reporter assay in L6 skeletal muscle cells; type: cell-based; conditions: FIG. 2B
T1 construct: endogenous in cells; host or cells: L6 myoblasts
T1 sequence (P15207 1-902): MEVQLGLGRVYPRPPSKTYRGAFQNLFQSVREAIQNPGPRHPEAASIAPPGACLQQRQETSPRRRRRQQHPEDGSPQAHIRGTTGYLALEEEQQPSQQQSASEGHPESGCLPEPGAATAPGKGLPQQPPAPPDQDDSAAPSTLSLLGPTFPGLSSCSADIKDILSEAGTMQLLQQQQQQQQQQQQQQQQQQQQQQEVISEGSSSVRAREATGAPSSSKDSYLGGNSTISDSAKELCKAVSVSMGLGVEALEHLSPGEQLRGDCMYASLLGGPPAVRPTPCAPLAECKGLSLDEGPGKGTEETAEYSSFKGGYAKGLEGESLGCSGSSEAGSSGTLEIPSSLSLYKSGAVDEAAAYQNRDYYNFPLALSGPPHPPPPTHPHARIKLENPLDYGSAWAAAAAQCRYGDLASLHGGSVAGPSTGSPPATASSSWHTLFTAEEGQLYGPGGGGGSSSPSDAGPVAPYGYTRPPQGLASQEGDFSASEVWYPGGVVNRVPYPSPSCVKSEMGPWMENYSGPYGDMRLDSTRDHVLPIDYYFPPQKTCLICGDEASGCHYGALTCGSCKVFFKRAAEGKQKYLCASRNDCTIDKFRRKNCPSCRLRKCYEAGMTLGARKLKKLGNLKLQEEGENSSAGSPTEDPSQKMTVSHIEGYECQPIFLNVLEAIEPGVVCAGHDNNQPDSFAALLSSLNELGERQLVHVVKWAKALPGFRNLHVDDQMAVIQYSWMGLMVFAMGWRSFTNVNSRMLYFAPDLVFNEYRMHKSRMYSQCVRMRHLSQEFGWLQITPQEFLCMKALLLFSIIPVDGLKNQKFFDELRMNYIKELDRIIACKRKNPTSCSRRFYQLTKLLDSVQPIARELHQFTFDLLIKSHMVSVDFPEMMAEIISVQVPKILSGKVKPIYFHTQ
Source text: Luciferase Reporter Assay. Cells were transfected using Lipofectamine Plus (Invitrogen) with a normalization plasmid (pRL-SV40, Promega) and an androgen responsive plasmid (MMTV-luciferase or PSA-luciferase) as described in Jones et al, ACS Chem Biol, 3(7):412-8 (2008), and, where indicated, with an shRNA plasmid targeting FOXM1 (adapted for mouse FOXM1 sequence targeting) a scrambled control shRNA plasmid, or ARQ24 or ARQ65 plasmids. Christensen et al, PLoS One, 8(1):e54556 (2013). The following day, cells and drugs were distributed to 96-well plates. 24 hours later, luciferase activity was assessed by a dual luciferase assay kit (Promega) on the Tecan plate reader. Samples were run in quadruplicates and a Student's t test was performed to determine significance, where p<0.05 was considered significant.
The ability of thiostrepton to inhibit AR activity in additional neuronal cells, including ReNcell CX cells PC12 cells, and in rat L6 skeletal muscle cells was examined (FIG. 2B). Donato et al, BMC Neurosci, 8:36 (2007); Yaffe, Proc Natl Acad Sci USA, 61(2):477-83 (1968).

FOXM1/β-catenin = biological target: T2, FOXM1/β-catenin (Mus musculus, UniProt O08696); experiment: Co-immunoprecipitation of β-catenin from GT1-7 cell lysates, Western blot for FOXM1; type: cell-based, murine; conditions: FIG. 3E
T2 construct: endogenous in cells; host or cells: GT1-7
T2 sequence (O08696 1-760): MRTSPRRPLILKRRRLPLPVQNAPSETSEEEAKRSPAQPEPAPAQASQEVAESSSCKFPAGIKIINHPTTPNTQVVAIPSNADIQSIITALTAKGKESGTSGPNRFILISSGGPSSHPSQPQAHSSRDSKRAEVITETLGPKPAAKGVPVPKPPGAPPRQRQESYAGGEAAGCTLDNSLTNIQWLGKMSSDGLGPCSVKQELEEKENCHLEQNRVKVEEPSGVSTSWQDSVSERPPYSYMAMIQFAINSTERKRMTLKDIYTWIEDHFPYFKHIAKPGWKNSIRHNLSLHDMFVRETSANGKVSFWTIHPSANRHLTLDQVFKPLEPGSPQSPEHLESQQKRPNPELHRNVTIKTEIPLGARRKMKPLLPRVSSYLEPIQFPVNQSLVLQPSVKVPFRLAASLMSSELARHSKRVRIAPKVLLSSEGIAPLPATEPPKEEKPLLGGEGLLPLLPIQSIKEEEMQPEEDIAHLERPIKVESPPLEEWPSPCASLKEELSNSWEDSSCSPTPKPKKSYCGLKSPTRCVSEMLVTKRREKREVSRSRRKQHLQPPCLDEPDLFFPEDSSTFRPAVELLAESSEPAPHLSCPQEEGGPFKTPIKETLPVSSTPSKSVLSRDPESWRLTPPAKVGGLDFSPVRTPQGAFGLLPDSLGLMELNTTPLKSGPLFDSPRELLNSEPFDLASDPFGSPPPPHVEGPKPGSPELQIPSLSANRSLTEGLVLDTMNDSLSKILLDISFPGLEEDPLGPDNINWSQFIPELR
Procedure: Immunoprecipitation (IP). The co-IP assay was performed as described by Zhang et al, Cancer Cell, 20(4):427-42 (2011). In brief, cells were lysed on ice for 20 minutes in co-IP buffer containing 10 mmol/L Hepes (pH8), 300 mmol/L NaCL, 0.1 mmol/L EDTA, 20% glycerol, 0.2% NP-40 and protease inhibitor (Roche Diagnostics). Lysate was centrifuged at 10000 g for 10 minutes at 4° C. Lysate was incubated with primary antibody (β-catenin: rabbit, 9562, Cell Signaling Technology) overnight at 4° C. followed by incubation with 30 uL of Protein A/G beads for 2 hours at 4° C. Collected protein complexes were washed and analyzed by Western blotting.
Western Blot. Cell lysates was separated on a 6% SDS page gel and transferred to a nitrocellulose membrane. The membrane was blocked for one hour in 5% skim milk dissolved in TBS-T and probed with the following antibodies ([…]): FoxM1 (rabbit, GeneTex), AR: 441 (mouse, Santa Cruz Biotechnology), β-catenin (rabbit 9562, Cell Signaling Technology), p84 (mouse, GeneTex) and actin (mouse, Santa Cruz Biotechnology). Horse radish peroxidase linked secondary antibodies were used along with ECL reagents for visualization. Western blots were quantified using Quantity One analysis software (BioRad).
Co-immunoprecipitation confirmed a direct interaction between β-catenin and FOXM1 as well as between β-catenin and AR (FIG. 3E). […]

C=C(NC(=O)C(=C)NC(=O)c1csc(C2=N[C@@H]3c4csc(n4)[C@H]4NC(=O)c5csc(n5)[C@H]([C@](C)(O)[C@@H](C)O)NC(=O)[C@H]5CSC(=N5)/C(=C/C)NC(=O)[C@H]([C@@H](C)O)NC(=O)c5csc(n5)[C@]3(CC2)NC(=O)[C@H](C)NC(=O)C(=C)NC(=O)[C@H](C)NC(=O)[C@H]([C@@H](C)CC)N[C@@H]2C=Cc3c([C@H](C)O)cc(nc3[C@H]2O)C(=O)O[C@@H]4C)n1)C(N)=O [thiostrepton]
inhibition of AR activity (luciferase) (AR): not muscle cells | amount of FOXM1 pulled down with β-catenin (FOXM1/β-catenin): reduced
